≈ marks a conversion by molar mass, not a printed value.
Tests used:
Type in all cases: functional
[1] = tested on: Scedosporium apiospermum; assay: Antifungal activity against Scedosporium apiospermum isolated from voriconazole treated scedosporiosis patient by broth microdilution method
[2] = tested on: Lomentospora prolificans; assay: Antifungal activity against Scedosporium prolificans isolated from voriconazole treated scedosporiosis patient by broth microdilution method
[3] = tested on: Scedosporium apiospermum; assay: Antifungal activity against Scedosporium apiospermum isolated from compound treated scedosporiosis patient by broth microdilution method
[4] = tested on: Lomentospora prolificans; assay: Antifungal activity against Scedosporium prolificans isolated from compound treated scedosporiosis patient by broth microdilution method

Compound | MIC50 [1] | MIC90 [1] | MIC50 [2] | MIC90 [2] | MIC50 [3] | MIC90 [3] | MIC50 [4] | MIC90 [4]
C[C@@H]1[C@H](O)[C@@H](C)/C=C/C=C/C=C/C=C/C=C/C=C/C=C/[C@H](O[C@@H]2O[C@H](C)[C@@H](O)[C@H](N)[C@@H]2O)C[C@@H]2O[C@](O)(C[C@@H](O)C[C@@H](O)[C@H](O)CC[C@@H](O)C[C@@H](O)CC(=O)O[C@H]1C)C[C@H](O)[C@H]2C(=O)O [AMPHOTERICIN B] | 4 µg/mL (≈ 4.33 µM) | > 8 µg/mL | 8 µg/mL (≈ 8.66 µM) | 16 µg/mL (≈ 17.3 µM) |  |  |  | 
CCC(C)n1ncn(-c2ccc(N3CCN(c4ccc(OCC5COC(Cn6cncn6)(c6ccc(Cl)cc6Cl)O5)cc4)CC3)cc2)c1=O (configuration not stated) [ITRACONAZOLE] | 0.5 µg/mL (≈ 0.709 µM) | 2 µg/mL (≈ 2.83 µM) | 16 µg/mL (≈ 22.7 µM) | 16 µg/mL (≈ 22.7 µM) |  |  |  | 
C[C@@H](c1ncncc1F)[C@](O)(Cn1cncn1)c1ccc(F)cc1F [VORICONAZOLE] |  |  |  |  | 0.25 µg/mL (≈ 0.716 µM) | 1 µg/mL (≈ 2.86 µM) | 4 µg/mL (≈ 11.5 µM) | 8 µg/mL (≈ 22.9 µM)

— ChEMBL document CHEMBL1275407, “Treatment of scedosporiosis with voriconazole: clinical experience with 107 patients” (2008)
